{"source": "patent US20230263816A1", "about": "“PHARMACEUTICAL COMPOSITIONS FOR DELIVERY OF REMDESIVIR BY INHALATION” (priority 2020, published 2023)", "key": {"[1]": {"system": "SAR-CoV-2", "conditions": "cited from earlier work"}, "[2]": {"system": "SARS-CoV-2", "conditions": "Pruijssers et al., 2020, cited from earlier work"}, "[3]": {"conditions": "cited from earlier work"}, "[4]": {"experiment": "Solubility in simulated lung fluid (SLF)", "assay_type": "physicochemical", "conditions": "for solubility in SLF: 25° C., 24 h", "protocol": "The composition and preparation of simulated lung fluid (SLF) were adapted from Hassoun's study (Hassoun et al., 2018). SLF contained dipalmitoylphosphotidylcholine (DPPC), cholesterol, albumin, transferrin, ascorbic acid and Hank's balanced salt solution (HBSS). The SLF was prepared by two steps including a preparation of liposomal dispersion and freeze drying as described in Hassoun et al. (Hassoun et al., 2018). In the first step, a liposomal dispersion was prepared by mixing 2.12 mL of 25 mg/mL DPPC and 5 μL of 200 mg/mL cholesterol in chloroform. Then, the solution was dried using an evaporator until the dry film was obtained. The thin film of lipid was dispersed by adding 8 mL of 57 mg/mL bovine serum albumin in water, 1 mL of 15 mg/mL transferrin in water, and 88.5 μL of 10 mM ascorbate solution. The mixture was sonicated until it fully dispersed. The dispersion was adjusted to 10 mL by adding 1M HBSS). The dispersion was frozen at −20° C. for 6 h, and primary dried in the lyophilizer at −40° C. for 30 h and ramp to 25° C. for 12 h and finally secondary dried at 25° C. for 20 h. The lyophilized SLF was stored at 2-8° C. and reconstituted with purified water upon solubility and dissolution testing.\nThe excess amount of powder was added in SLF until precipitation occurred. Then the samples were shaken on the orbital shaker at 250 rpm and 25° C. for 24 h. The samples were collected and centrifuged at 13,000 rpm for 15 min. The supernatants were collected and then diluted with DMSO/acetonitrile (10/90). The samples were centrifuged again at 13,000 rpm for 15 min to separate proteins in SLF. The supernatants were collected and analyzed by HPLC."}, "[5]": {"conditions": "rats; cited from earlier work"}}, "note": "Where two headings read alike, the source gives them in different places."}
{"smiles": "N#C[C@@]1(c2ccc3c(N)ncnn23)O[C@H](CO)[C@@H](O)[C@H]1O", "note": "[GS-441524]", "values": [{"measurement": "EC50", "setting": "[1]; human airway epithelial (HAE), Agostini et al., 2018", "value": 0.05243, "unit": "µg/mL"}, {"measurement": "EC50", "setting": "[1]; read-out: EC50", "value": 0.18, "unit": "µM"}, {"measurement": "EC50", "setting": "[2]; Calu3 2B4 cells, read-out: EC50", "value": 0.62, "unit": "µM"}, {"measurement": "EC50", "setting": "[2]; Calu-3 2B4 cells", "value": 0.1806, "unit": "µg/mL"}, {"measurement": "half-life", "setting": "[3]; human, in vivo, iv", "value": "approximately 24.5 h"}]}
{"smiles": "CCC(CC)COC(=O)[C@H](C)N[P@](=O)(OC[C@H]1O[C@@](C#N)(c2ccc3c(N)ncnn23)[C@H](O)[C@@H]1O)Oc1ccccc1", "note": "[amorphous remdesivir, remdesivir]", "values": [{"measurement": "increase in solubility compared to crystalline neat remdesivir", "setting": "[4]", "value": 20, "unit": "fold"}, {"measurement": "solubility of amorphous versus crystalline remdesivir", "setting": "[4]", "value": "about 20 times"}, {"measurement": "solubility in SLF", "setting": "[4]", "value": "590 ± 10", "unit": "µg/mL"}]}
{"smiles": "CCC(CC)COC(=O)[C@H](C)N[P@](=O)(OC[C@H]1O[C@@](C#N)(c2ccc3c(N)ncnn23)[C@H](O)[C@@H]1O)Oc1ccccc1", "note": "[crystalline remdesivir, remdesivir]", "values": [{"measurement": "solubility in SLF", "setting": "[4]", "value": "30 ± 1", "unit": "µg/mL"}]}
{"smiles": "CCC(CC)COC(=O)[C@H](C)N[P@](=O)(OC[C@H]1O[C@@](C#N)(c2ccc3c(N)ncnn23)[C@H](O)[C@@H]1O)Oc1ccccc1", "note": "[remdesivir]", "values": [{"measurement": "half-life of remdesivir in plasma", "setting": "[5]", "value": "less than 0.9 min"}, {"measurement": "half-life", "setting": "[3]; humans, multiple IV administrations once a day", "value": "about 1 h"}]}
